In US20240108602A1, “TREATMENT OF MENTAL DISORDERS” (GH Research Ireland Limited, priority 2022, published 2024):

System: patients with postpartum depression (PPD)
Experiment: Clinical trial of inhaled 5-MeO-DMT (IDR) in patients with postpartum depression
Protocol: The single-arm, open-label clinical trial will involve 15 adult female patients with clinically diagnosed postpartum depression (PPD).
The second dose (12 mg) will only be administered if: • a. A peak experience (total score of ≥75) has not been achieved following the 6 mg dose, and • b. The 6 mg dose was safe and well-tolerated according to the investigator, • c. Any psychoactive effects (PsE) of the prior dose have subsided, and • d. Pre-dose vital parameters and forced expiratory volume in one second (FEV1) are in normal range, or if outside of the normal range, are not clinically significant according to the investigator. • 3. Similarly, a third dose (18 mg) will only be administered if: • a. A peak experience (total score of ≥75) has not been achieved following the 12 mg dose, and • b. The 12 mg dose was safe and well-tolerated according to the investigator, and • c. Any PsE of the prior dose have subsided, and • d. Pre-dose vital parameters and forced expiratory volume in one second (FEV1) are in normal range, or if outside of the normal range, are not clinically significant according to the investigator.
The patients will be assessed for a peak psychedelic experience (based on a patient-scored visual analogue scale, the PE scale), sedation, and other endpoints after dosing.
Follow-up visits are planned for Day 1, and Day 7 after the dosing day.
The following criteria must be met by all patients considered for clinical trial participation: • 1. Is female and in the age range between 18 and 45 years (inclusive) at screening. • 2. Has a body mass index (BMI) in the range of 18.5 and 35 kg/m^2 (inclusive) at screening. • 3. Meets the trial criteria for PPD as assessed by a trial psychiatrist or registered psychologist: • a. Diagnosis of Major Depressive Disorder without psychotic features, confirmed by the Mini-International Neuropsychiatric Interview (MINI), with peri-partum onset that began no earlier than gestation and no later than the first 4 weeks postpartum. • b. Has a Montgomery-Åsberg Depression Rating Scale (MADRS) total score of equal to or greater than 28 at screening and pre-dose on Day 0. • 6. […] Patients must have a negative pregnancy test at screening and on the pre-test day (Day−1). • 5. Is willing to delay start of other antidepressant or anxiety medication until after the end of the trial at Day 7 and agrees to keep any psychotherapy unchanged during the trial.

For `COc1ccc2[nH]cc(CCN(C)C)c2c1` [5-MeO-DMT], the “ECG, safety laboratory analyses, CADSS” value (PPD patient 1) was “unremarkable”, the “MADRS response (at least 50% improvement) and MADRS remission (total score 10 or less)” value (PPD patient 1) was “fulfilled standard criteria” and the “reported adverse events (mild, resolved spontaneously)” value (PPD patient 1) was “cramping left abdominal pain and headache”. For the same molecule, the “MADRS Apparent sadness improvement” value (PPD patient 1, 2 hr) was 5, the “MADRS Apparent sadness score” value (PPD patient 1, 2 hr) was 0 and the “MADRS Concentration Difficulties improvement” value (PPD patient 1, 2 hr) was 0. The “MADRS Concentration Difficulties score” value (PPD patient 1, 2 hr) was 0, the “MADRS Inability to Feel improvement” value (PPD patient 1, 2 hr) was 3 and the “MADRS Inability to Feel score” value (PPD patient 1, 2 hr) was 0. For the same molecule, the “MADRS Inner Tension improvement” value (PPD patient 1, 2 hr) was 5, the “MADRS Inner Tension score” value (PPD patient 1, 2 hr) was 0 and the “MADRS Lassitude improvement” value (PPD patient 1, 2 hr) was 3. For the same molecule, the “MADRS Lassitude score” value (PPD patient 1, 2 hr) was 0, the “MADRS Pessimistic Thoughts improvement” value (PPD patient 1, 2 hr) was 4 and the “MADRS Pessimistic Thoughts score” value (PPD patient 1, 2 hr) was 0. For the same molecule, the “MADRS Reduced Sleep improvement” value (PPD patient 1, 2 hr) was 0, the “MADRS Reduced Sleep score” value (PPD patient 1, 2 hr) was 5 and the “MADRS Reduced appetite improvement” value (PPD patient 1, 2 hr) was 0. The “MADRS Reduced appetite score” value (PPD patient 1, 2 hr) was 0, the “MADRS Reported sadness improvement” value (PPD patient 1, 2 hr) was 4 and the “MADRS Reported sadness score” value (PPD patient 1, 2 hr) was 0. The “MADRS Suicidal Thoughts improvement” value (PPD patient 1, 2 hr) was 0, the “MADRS Suicidal Thoughts score” value (PPD patient 1, 2 hr) was 0 and the “Total MADRS improvement” value (PPD patient 1, 2 hr) was 24. For the same molecule, the “Total MADRS score” value (PPD patient 1, 2 hr) was 5, the “BPRS Anxiety improvement” value (PPD patient 1, Day 1) was 6 and the “BPRS Anxiety score” value (PPD patient 1, Day 1) was 1. The “BPRS Blunted affect improvement” value (PPD patient 1, Day 1) was 0, the “BPRS Blunted affect score” value (PPD patient 1, Day 1) was 1 and the “BPRS Conceptual disorganization improvement” value (PPD patient 1, Day 1) was 0. The “BPRS Conceptual disorganization score” value (PPD patient 1, Day 1) was 1, the “BPRS Depressive Mood improvement” value (PPD patient 1, Day 1) was 5 and the “BPRS Depressive Mood score” value (PPD patient 1, Day 1) was 1. For the same molecule, the “BPRS Disorientation improvement” value (PPD patient 1, Day 1) was 0, the “BPRS Disorientation score” value (PPD patient 1, Day 1) was 1 and the “BPRS Emotional withdrawal improvement” value (PPD patient 1, Day 1) was 4. For the same molecule, the “BPRS Emotional withdrawal score” value (PPD patient 1, Day 1) was 1, the “BPRS Excitement improvement” value (PPD patient 1, Day 1) was 1 and the “BPRS Excitement score” value (PPD patient 1, Day 1) was 1. The “BPRS Grandiosity improvement” value (PPD patient 1, Day 1) was 0, the “BPRS Grandiosity score” value (PPD patient 1, Day 1) was 1 and the “BPRS Guilt feelings improvement” value (PPD patient 1, Day 1) was 5. The “BPRS Guilt feelings score” value (PPD patient 1, Day 1) was 1, the “BPRS Hallucinatory behaviour improvement” value (PPD patient 1, Day 1) was 0 and the “BPRS Hallucinatory behaviour score” value (PPD patient 1, Day 1) was 1. The “BPRS Hostility improvement” value (PPD patient 1, Day 1) was 0, the “BPRS Hostility score” value (PPD patient 1, Day 1) was 1 and the “BPRS Mannerisms and Posturing improvement” value (PPD patient 1, Day 1) was 0. The “BPRS Mannerisms and Posturing score” value (PPD patient 1, Day 1) was 1, the “BPRS Motor retardation improvement” value (PPD patient 1, Day 1) was 0 and the “BPRS Motor retardation score” value (PPD patient 1, Day 1) was 1. For the same molecule, the “BPRS Somatic Concern improvement” value (PPD patient 1, Day 1) was 5, the “BPRS Somatic Concern score” value (PPD patient 1, Day 1) was 1 and the “BPRS Suspiciousness improvement” value (PPD patient 1, Day 1) was 0. For the same molecule, the “BPRS Suspiciousness score” value (PPD patient 1, Day 1) was 1, the “BPRS Tension improvement” value (PPD patient 1, Day 1) was 5 and the “BPRS Tension score” value (PPD patient 1, Day 1) was 1. For the same molecule, the “BPRS Uncooperativeness improvement” value (PPD patient 1, Day 1) was 0, the “BPRS Uncooperativeness score” value (PPD patient 1, Day 1) was 1 and the “BPRS Unusual Thought Content improvement” value (PPD patient 1, Day 1) was 0. The “BPRS Unusual Thought Content score” value (PPD patient 1, Day 1) was 1, the “MADRS Apparent sadness improvement” value (PPD patient 1, Day 1) was 5 and the “MADRS Apparent sadness score” value (PPD patient 1, Day 1) was 0. The “MADRS Concentration Difficulties improvement” value (PPD patient 1, Day 1) was 0, the “MADRS Concentration Difficulties score” value (PPD patient 1, Day 1) was 0 and the “MADRS Inability to Feel improvement” value (PPD patient 1, Day 1) was 3. For the same molecule, the “MADRS Inability to Feel score” value (PPD patient 1, Day 1) was 0, the “MADRS Inner Tension improvement” value (PPD patient 1, Day 1) was 5 and the “MADRS Inner Tension score” value (PPD patient 1, Day 1) was 0. The “MADRS Lassitude improvement” value (PPD patient 1, Day 1) was 3, the “MADRS Lassitude score” value (PPD patient 1, Day 1) was 0 and the “MADRS Pessimistic Thoughts improvement” value (PPD patient 1, Day 1) was 4. For the same molecule, the “MADRS Pessimistic Thoughts score” value (PPD patient 1, Day 1) was 0, the “MADRS Reduced Sleep improvement” value (PPD patient 1, Day 1) was 5 and the “MADRS Reduced Sleep score” value (PPD patient 1, Day 1) was 0. The “MADRS Reduced appetite improvement” value (PPD patient 1, Day 1) was 0, the “MADRS Reduced appetite score” value (PPD patient 1, Day 1) was 0 and the “MADRS Reported sadness improvement” value (PPD patient 1, Day 1) was 4. The “MADRS Reported sadness score” value (PPD patient 1, Day 1) was 0, the “MADRS Suicidal Thoughts improvement” value (PPD patient 1, Day 1) was 0 and the “MADRS Suicidal Thoughts score” value (PPD patient 1, Day 1) was 0. For the same molecule, the “Total MADRS improvement” value (PPD patient 1, Day 1) was 29, the “Total MADRS score” value (PPD patient 1, Day 1) was 0 and the “BIMF TOTAL Δ vs Day 0” value (PPD patient 1, Day 7) was 13. For the same molecule, the “BIMF domain Adjustment % Improvement” value (PPD patient 1, Day 7) was 20.00%, the “BIMF domain Adjustment score” value (PPD patient 1, Day 7) was 6 and the “BIMF domain Adjustment Δ vs Day 0” value (PPD patient 1, Day 7) was 1. For the same molecule, the “BIMF domain Infant Care % Improvement” value (PPD patient 1, Day 7) was 0.00%, the “BIMF domain Infant Care score” value (PPD patient 1, Day 7) was 12 and the “BIMF domain Infant Care Δ vs Day 0” value (PPD patient 1, Day 7) was 0. For the same molecule, the “BIMF domain Management % Improvement” value (PPD patient 1, Day 7) was 18%, the “BIMF domain Management score” value (PPD patient 1, Day 7) was 33 and the “BIMF domain Management Δ vs Day 0” value (PPD patient 1, Day 7) was 5. The “BIMF domain Mother-Child Interaction score” value (PPD patient 1, Day 7) was 17, the “BIMF domain Mother-Child Interaction Δ vs Day 0” value (PPD patient 1, Day 7) was 2 and the “BIMF domain Psychological Well-being score” value (PPD patient 1, Day 7) was 53. For the same molecule, the “BIMF domain Psychological Well-being Δ vs Day 0” value (PPD patient 1, Day 7) was 9, the “BIMF domain Self-Care % Improvement” value (PPD patient 1, Day 7) was 44% and the “BIMF domain Self-Care score” value (PPD patient 1, Day 7) was 13. For the same molecule, the “BIMF domain Self-Care Δ vs Day 0” value (PPD patient 1, Day 7) was 4, the “BIMF domain Social Support score” value (PPD patient 1, Day 7) was 18 and the “BIMF domain Social Support Δ vs Day 0” value (PPD patient 1, Day 7) was 1. The “BIMF item 1 (I am a good mother) score” value (PPD patient 1, Day 7) was 6, the “BIMF item 1 Δ vs Day 0” value (PPD patient 1, Day 7) was 0 and the “BIMF item 2 (I feel rested) score” value (PPD patient 1, Day 7) was 2. For the same molecule, the “BIMF item 2 Δ vs Day 0” value (PPD patient 1, Day 7) was 2, the “BIMF item 3 (comfortable with the way I've chosen to feed my baby) score” value (PPD patient 1, Day 7) was 6 and the “BIMF item 3 Δ vs Day 0” value (PPD patient 1, Day 7) was 0. For the same molecule, the “BIMF item 4 (My baby and I understand each other) score” value (PPD patient 1, Day 7) was 5, the “BIMF item 4 Δ vs Day 0” value (PPD patient 1, Day 7) was 0 and the “BIMF item 5 (able to relax and enjoy time with my baby) score” value (PPD patient 1, Day 7) was 6. The “BIMF item 5 Δ vs Day 0” value (PPD patient 1, Day 7) was 1, the “BIMF item 6 (people I can trust to care for my baby when I need a break) score” value (PPD patient 1, Day 7) was 6 and the “BIMF item 6 Δ vs Day 0” value (PPD patient 1, Day 7) was 0. For the same molecule, the “BIMF item 7 Δ vs Day 0” value (PPD patient 1, Day 7) was 0, the “BIMF item 8 (getting enough adult interaction) score” value (PPD patient 1, Day 7) was 6 and the “BIMF item 8 Δ vs Day 0” value (PPD patient 1, Day 7) was 0. The “BIMF item 9 (getting enough encouragement from other people) score” value (PPD patient 1, Day 7) was 6, the “BIMF item 9 Δ vs Day 0” value (PPD patient 1, Day 7) was 1 and the “BIMF item 10 (I trust my own feelings (instincts)) score” value (PPD patient 1, Day 7) was 6. The “BIMF item 10 Δ vs Day 0” value (PPD patient 1, Day 7) was 1, the “BIMF item 11 (a little time each week to do something for myself) score” value (PPD patient 1, Day 7) was 6 and the “BIMF item 11 Δ vs Day 0” value (PPD patient 1, Day 7) was 1.
